Patent US8236337B2, “Anti-microbial orthodontic compositions and appliances and methods of production and use thereof” (Selenium, Ltd., priority 2005, dated 2012)

How the values were obtained:
Biofilm formation = assay: Inhibition of biofilm formation by selenium compounds (Example 4); format: cell-based; parameters: Percent inhibition of Biofilm formation: concentration or dose not given beside the values
[1] = Superoxide radical generation by selenium modified bonding agent coated on a surface, measured by chemiluminescence; leaching check of soak water
Procedure: In this hydrophobic mixing experiment, a selenium compound comprising a CN protecting group [2-(selenocyanatoacetoxy)butoxyethyl methacrylate] was mixed with the bonding agent 2-(Acetoacetoxy)ethylmethacrylate (AAEMA) to a final selenium concentration of 5%. The selenium composition was then applied to a surface, such as a PMMA plastic or a human toenail (results with both surfaces were the same), preferably at a concentration of about 100 mg/cm^2. The ability of the selenium modified bonding agent to generate superoxide radicals was then measured by chemiluminescence, as shown in FIG. 1. In FIG. 1, “Crude 1” and “Crude 2” refer to a mixture of the selenium labeled material with AAEMA; “pure” refers to the pure selenium labeled compound (no AAEMA); “blank” refers to the AAEMA with no selenium; for “plastic removed”, the mixture-coated plastic was soaked in water, and then after removal of the plastic, the aqueous solution was tested for any selenium that may have come off.

Row | Compound | Biofilm formation, log reduction (Biofilm formation) | Percent inhibition of Biofilm formation (Biofilm formation) | ability to generate superoxide radicals (chemiluminescence) ([1]; mixed with AAEMA to final selenium concentration of 5%, coated on PMMA plastic or human toenail and dried) | leaching of selenium from coated plastic ("plastic removed" sample) ([1]; mixture-coated plastic soaked in water, aqueous solution tested by chemiluminescence after removal of plastic)
1 | 3,4-Bis(selenyl)propionic acid | 2 logs | 99% | – | –
2 | c1ccc([Se][Se]c2ccccc2)cc1 [1,2-Bis(phenyl)diselenide] | 8 logs | 100% | – | –
3 | C=C(C)C(=O)OCCOC(=O)CC(C)OC(=O)CC[Se][Se]CCC(=O)OC(C)CC(=O)OCCOC(=O)C(=C)C (centres unmarked) [3-[3-(2-{1-Methyl-2-[2-(2-methyl-acryloyloxy)-ethoxycarbonyl]-ethoxycarbonyl}-ethyldiselenyl)-propionyloxy]-butyric acid 2-(2-methyl-acryloyloxy)-ethyl ester] | 8 logs | 100% | – | –
4 | C=C(C)C(=O)OCCOCC(CC)OC(=O)C[Se]C#N (centres unmarked) [2-(selenocyanatoacetoxy)butoxyethyl methacrylate] | – | – | still demonstrating chemiluminescence | no significant leaching
5 | 3,4-Bis(selenyl)2-hydroxy propanol | 8 logs | 100% | – | –
6 | N#C[Se]CCN [1-amino,2-selenocyanato ethane] | 5 logs | 99.999% | – | –
7 | C1CCC(C[Se][Se]CC2CCCCC2)CC1 [1,2-Bis(cyclohexylmethyl)diselenide] | – | 98% | – | –
8 | CC(O)C(O)[Se]C#N (centres unmarked) [1-selenocyanato,2-hydroxy propanol] | 8 logs | 100% | – | –
9 | 3,4-Bis(selenyl)ethanoic acid | 8 logs | 100% | – | –
10 | CC(NC(=O)OCC1c2ccccc2-c2ccccc21)[Se]C#N (centres unmarked) [Fmoc-1-amino,1-selenocyanato ethane] | 8 logs | 100% | – | –
11 | Cl.Cl.NCC[Se][Se]CCN [Selenocystamine 2HCl] | 5 logs | 99.999% | – | –
12 | NCC[Se-].[Na+] [Sodium 1-amino,2-seleno ethane] | 3 logs | 99.9% | – | –
